Where a name gives a salt, the structure may show the parent alone. Read-outs that look alike come from different tables or passages of the source.
What was measured:
[1] = molecular target: T1, rat cerebral neuronal membranes (histamine H1 binding sites) (Rattus norvegicus, UniProt P31390); test: Competitive displacement of [^3H]pyrilamine binding, rat cerebral neuronal membranes; details: for displacement of specific [^3H]pyrilamine binding (in words): rat cerebral neuronal membranes, 20 nM [^3H]pyrilamine
T1 construct: native receptors contained in rat cerebral neuronal membranes; from tissue; host or cells: cerebral tissue of male Wistar rats, membrane fraction (40,000 x g pellet)
T1 sequence (P31390 whole entry): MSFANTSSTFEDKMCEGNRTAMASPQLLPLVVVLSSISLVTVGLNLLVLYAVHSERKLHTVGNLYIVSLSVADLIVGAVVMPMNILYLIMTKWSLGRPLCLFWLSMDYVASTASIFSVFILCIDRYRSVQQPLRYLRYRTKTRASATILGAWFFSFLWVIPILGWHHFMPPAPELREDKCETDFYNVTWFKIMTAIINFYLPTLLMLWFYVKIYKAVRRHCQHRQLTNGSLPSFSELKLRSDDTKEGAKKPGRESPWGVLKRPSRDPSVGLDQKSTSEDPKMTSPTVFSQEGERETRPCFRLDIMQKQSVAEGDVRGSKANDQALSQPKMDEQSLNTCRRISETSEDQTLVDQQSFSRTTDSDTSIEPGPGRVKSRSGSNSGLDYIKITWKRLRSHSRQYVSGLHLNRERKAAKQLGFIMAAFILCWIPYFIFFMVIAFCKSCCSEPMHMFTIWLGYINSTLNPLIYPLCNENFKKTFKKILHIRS

[2] = molecular target: T2, synthesized WT-HRH1 proteoglycerosomes (Homo sapiens, UniProt P35367)
T2 sequence (P35367 whole entry): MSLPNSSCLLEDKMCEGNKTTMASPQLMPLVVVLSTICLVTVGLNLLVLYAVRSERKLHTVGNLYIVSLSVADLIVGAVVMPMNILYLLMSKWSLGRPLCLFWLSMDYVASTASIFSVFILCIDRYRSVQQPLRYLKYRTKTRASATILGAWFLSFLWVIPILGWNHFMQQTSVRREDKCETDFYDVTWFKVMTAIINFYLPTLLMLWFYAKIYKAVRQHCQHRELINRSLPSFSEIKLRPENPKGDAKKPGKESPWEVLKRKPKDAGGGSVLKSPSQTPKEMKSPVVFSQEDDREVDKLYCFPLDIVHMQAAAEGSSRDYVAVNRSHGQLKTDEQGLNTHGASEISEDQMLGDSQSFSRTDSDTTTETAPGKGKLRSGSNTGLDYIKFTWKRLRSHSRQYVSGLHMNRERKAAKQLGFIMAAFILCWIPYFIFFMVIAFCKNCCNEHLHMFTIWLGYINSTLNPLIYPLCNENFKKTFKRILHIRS
Description: (§1) Eight different concentrations of each cold competitor were used in the competitive binding studies. […] The data are based on experiments performed in triplicate. The experimental conditions were the same as those used in the saturation studies.

[3] = molecular target: T2, synthesized WT-HRH1 proteoglycerosomes; test: biochemical
Description: as §1

Compound | displacement of specific [^3H]pyrilamine binding (in words) [1] | displacement of specific [^3H]pyrilamine binding (in words) [2] | Ki [1] [nM] | Ki [3] [nM] | displacement of specific [^3H]pyrilamine binding (in words) ([2]; synthesized receptors, 20 nM [^3H]pyrilamine)
C[C@@H](N)Cc1cnc[nH]1 [alpha methylhistamine, alpha-methylhistamine] | did not inhibit | did not inhibit |  |  | 
NC1=NCC2c3ccccc3Cc3ccccc3N12 (centres unmarked) [Epinastine, epinastine hydrochloride] | concentration-dependent inhibition |  | 0.288 ± 0.0615 | 0.332 ± 0.0989 | concentration-dependent inhibition
S=C(NC1CCCCC1)N1CCC(c2cnc[nH]2)CC1 [thioperamide] | no displacement ability | no displacement ability |  |  | 
